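96-well plates; 48 h exposure; 5 concentrations. Endpoints by linear interpolation between flanking doses. Not reached: highest tested concentration assigned. At the TGI there is no net growth.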
Key:
Test in all cases: DTP human tumour cell line panel, 48 h
SK-MEL-2 melanoma = tested on: SK-MEL-2 melanoma
COLO 205 colon = tested on: COLO 205 colon
KM12 colon = tested on: KM12 colon
SNB-19 CNS = tested on: SNB-19 CNS
LOX IMVI melanoma = tested on: LOX IMVI melanoma
OVCAR-5 ovarian = tested on: OVCAR-5 ovarian
A549 NSCLC = tested on: A549 NSCLC
SNB-75 CNS = tested on: SNB-75 CNS
M14 melanoma = tested on: M14 melanoma
SK-OV-3 ovarian = tested on: SK-OV-3 ovarian

SMILES | TGI (SK-MEL-2 melanoma) | TGI (COLO 205 colon) | TGI (KM12 colon) | TGI (SNB-19 CNS) | TGI (LOX IMVI melanoma) | TGI (OVCAR-5 ovarian) | TGI (A549 NSCLC) | TGI (SNB-75 CNS) | TGI (M14 melanoma) | TGI (SK-OV-3 ovarian)
CCc1nnc2sc(-c3ccc(-c4ccc(Cl)cc4Cl)o3)nn12 | > 100 µM | > 100 µM | > 100 µM | > 100 µM | > 100 µM | > 100 µM | > 100 µM | 56 µM | > 100 µM | > 100 µM
COc1ccc(N(C(=O)OC(C)(C)C)[C@@H]2C(C)=C[C@H]([S@@](=O)c3ccc(C)cc3)[C@@H]3C(=O)N(C)C(=O)[C@@H]32)cc1 | 39.3 µM | 31 µM | 30.5 µM | 51.5 µM | 17.5 µM | 43.1 µM | > 100 µM | 21.4 µM | > 100 µM | 30.3 µM
Nc1nc(Cl)cc(NCC2(CO)CC(CCCCc3ccccc3)C2)n1 (stereo not given) | > 100 µM | > 100 µM | > 100 µM | > 100 µM | > 100 µM | > 100 µM | > 100 µM | > 100 µM | > 100 µM | > 100 µM
COc1ccc2c(c1)CCC(CN1CCN(CCOC(c3ccc(F)cc3)c3ccc(F)cc3)CC1)=C2 | 33.3 µM | 10.4 µM | > 100 µM | > 100 µM | 30.3 µM | 97.4 µM | > 100 µM | > 100 µM | 27.4 µM | > 100 µM
CC(C)C[C@H](NC(=O)[C@@H](Cc1cccc2ccccc12)NC(=O)N1CCOCC1)B(O)O | 13.1 µM | 36.4 µM | 20 µM | > 100 µM | 5.98 µM | 13.5 µM | 68 µM | 18.8 µM | 10.8 µM | 40.6 µM
C[N+](C)(C)CCCCCc1c2nc(c(CCCCC[N+](C)(C)C)c3ccc([nH]3)c(CCCCC[N+](C)(C)C)c3ccc([nH]3)c(CCCCC[N+](C)(C)C)c3nc1C=C3)C=C2 | > 100 µM | > 100 µM | > 100 µM | > 100 µM | > 100 µM | > 100 µM | > 100 µM | > 100 µM | > 100 µM | > 100 µM
CC(C)(C)[Si](C)(C)OCC1OC(n2ccc(=O)[nH]c2=O)C(O[Si](C)(C)C(C)(C)C)/C1=N/O (stereo not given) | 9.48 µM | 5.69 µM | > 22.6 µM | 18.1 µM | 10.5 µM | 18.6 µM | 14 µM | 46.1 µM | 12 µM | 26 µM
Cc1[nH]n(C(=O)c2ccccc2O)c(=O)c1/C=C1\C(=O)C=Cc2ccccc21 | 17.2 µM | 13.1 µM | > 74.1 µM | 64.3 µM | 8.79 µM | > 64.9 µM | 38.5 µM | 10.4 µM | 4.63 µM | 22.1 µM
CC1(C)OC1CC/C(=C/CBr)CBr (stereo not given) | 29 µM | 29.4 µM | 29.9 µM | 28.6 µM | 22.3 µM | 31.5 µM | 53.1 µM | 21 µM | 36.5 µM | 48.5 µM
NC(=O)c1cc2ccccc2c(N=Nc2ccccc2)c1O | > 100 µM | > 100 µM | > 100 µM | > 100 µM | > 100 µM | > 100 µM | > 100 µM | > 100 µM | > 100 µM | > 100 µM
Cc1ccc(S(=O)/C=C(\NC(=O)OCc2ccccc2)C(F)(F)F)cc1 (stereo not given) | > 100 µM | > 100 µM | > 100 µM | > 100 µM | > 100 µM | > 100 µM | > 100 µM | 91.4 µM | > 100 µM | > 100 µM
CC(C)(C)c1cc(C2COC(=O)COCCOCC(=O)OCCOCCO2)cc(C(C)(C)C)c1O (stereo not given) | > 100 µM | > 100 µM | > 100 µM | > 100 µM | > 31.6 µM | 54.8 µM | > 100 µM | 49.6 µM | > 100 µM | > 78.4 µM
CC(C)(C)[C@@H]1NC(=O)CN1C(=O)OCc1ccccc1 | > 100 µM | > 100 µM | > 100 µM | > 100 µM | > 100 µM | > 100 µM | > 100 µM | > 100 µM | > 100 µM | > 100 µM
CCOC(=O)Cc1csc(/N=C\c2c(O)c3ccccc3oc2=O)n1 | 40.4 µM | > 100 µM | > 100 µM | > 100 µM | > 100 µM | > 100 µM | > 100 µM | 56.7 µM | > 100 µM | > 100 µM
N#Cc1ccc(Nc2nc3nc[nH]c3c(=O)[nH]2)cc1 | > 100 µM | > 100 µM | > 100 µM | > 100 µM | > 100 µM | > 100 µM | > 100 µM | > 100 µM | > 100 µM | > 100 µM
CCOC(=O)c1ccc(N=C/C=C(\Nc2ccc(C(=O)OCC)cc2)c2ccc3ccccc3c2)cc1 | 66.9 µM | 32.6 µM | 48.2 µM | > 100 µM | 34.4 µM | > 100 µM | > 100 µM | > 100 µM | 59 µM | > 100 µM
COc1ccc(OC)c2c1C[C@@H]1C(C#N)N3[C@H](Cc4c(OC)ccc(OC)c4[C@@H]3C)C(=O)N1[C@H]2C (stereo not given in full) | 5.2 µM | 3.52 µM | 8.21 µM | 4.96 µM | 5.95 µM | 23.7 µM | > 54.3 µM | 5.02 µM | 8.54 µM | 29.4 µM
COCOc1cc(OC)ccc1C=O | > 100 µM | 54.2 µM | > 100 µM | > 100 µM | > 100 µM | > 100 µM | > 100 µM | > 100 µM | > 100 µM | > 100 µM

From PubChem BioAssay (NCI)
